Assay [1] has as its system cells resistant or sensitive to the anticancer agent. Nature of the assay: Time-lapse profiles of cells exposed to an anticancer agent. In kind it is cell-based. The settings on record: 1 μM, 5 μM, 10 μM and the like. The procedure: In this example, cisplatin was used as an exemplary anticancer agent and mixed into medium contacting cells. The concentration of the anticancer agent was selected as appropriate, such as 1 μM, 5 μM, 10 μM, and the like, to observe the reaction of the cells. Cisplatin was applied to cells resistant or sensitive to the anticancer agent. Time-lapse observation was conducted to produce profiles as in the above-described examples.

A further assay relates to HEK293 cells. Put plainly: Solid phase transfection with actin-like acting substances, gelatin as control (FIG. 1). In kind it is cell-based, human. The procedure:
(§1) The final concentration of DNA was adjusted to 1 μg/μL. An actin-like acting substance was stored as a stock having a concentration of 10 μg/μL, in ddH2O. All dilutions were made using PBS, ddH2O, or Dulbecco's MEM. A series of dilutions, for example, 0.2 μg/μL, 0.27 μg/μL, 0.4 μg/μL, 0.53 μg/μL, 0.6 μg/μL, 0.8 μg/μL, 1.0 μg/μL, 1.07 μg/μL, 1.33 μg/μL, and the like, were formulated.
In Example 2, the following 5 cells were used to confirm an effect: human mesenchymal stem cell (hMSCs, PT-2501, Cambrex BioScience Walkersville, Inc., MD); human embryonic renal cell (HEK293, RCB1637, RIKEN Cell Bank, JPN); NIH3T3-3 cell (RCB0150, RIKEN Cell Bank, JPN); HeLa cell (RCB0007, RIKEN Cell Bank, JPN); and HepG2(RCB1648, RIKEN Cell Bank, JPN). These cells were cultured in DMEM/10% IFS containing L-glutamine and penicillin/streptomycin.
(§2) Transfection reagents and DNA were mixed to form a DNA-transfection reagent complex. Formation of the complex requires a certain period of time. Therefore, the mixture was spotted onto a solid phase support (e.g., a poly-L-lysine slide) using an arrayer. In Example 2, as a solid phase support, an APS slide, a MAS slide, and an uncoated slide were used, as well as a poly-L-lysine slide. These slides are available from Matsunami Glass (Kishiwada, Japan), or the like.
Although the actin-like acting substance might be used during complex formation, it was also used immediately before spotting in the present Example.
300 μL of DNA concentrated buffer (EC buffer)+16 μL of an enhancer were mixed in an Eppendorf tube. The mixture was mixed with a Vortex, followed by incubation for 5 minutes. […]
Gene introduction was evaluated by detection using, for example, immunofluorescence, fluorescence microscope examination, laser scanning, radioactive labels, and sensitive films, or emulsion.
(§3) To quantify transfection efficiency, the present inventors use a DNA microarray scanner (GeneTAC UC4×4, Genomic Solutions Inc., MI). Total fluorescence intensity (arbitrary unit) was measured, and thereafter, fluorescence intensity per unit surface area was calculated.

A further assay concerns Mesenchymal Stem Cells. Nature of the assay: Solid phase transfection at varied fibronectin concentration on PLL, APS and uncoated slides (FIG. 7). In kind it is cell-based, human. The procedure:
as §1, §2
The growing cells were adjusted to a concentration of 10^7 cells/25 mL. The cells were plated on the slide in a 100×100×15 mm squared Petri dish or a 100 mm (radius)×15 mm circular dish. Transfection was conducted for about 40 hours. This period of time corresponded to about 2 cell cycles. The slide was treated for immunofluorescence.
as §3
In FIG. 7, slides coated with PLL (poly-L-lysine), APS and uncoated slides are shown.

The test system of another assay is Human Mesenchymal Cell. Put plainly: Cell adhesion profile, actin filaments and nuclear surface area with or without fibronectin (FIGS. 8-10). In kind it is cell-based. The note with it: presence of fibronectin.

For `N.N.[Cl][Pt][Cl]` [cisplatin], the time-lapse profiles entry in assay [1] is “varied depending on the difference in cisplatin concentration and resistance/sensitivity”.

As for gelatin [reference compound], the “transfection in the system using the actin-like acting substance” value (shortened to “transfection in the system”) in the assay on HEK293 cells is “transfection was not very successful”.

Turning to laminin, the “transfection in the system” value in the assay with HEK293 cells was “transfection took place to a significant level”.

Regarding fibronectin, the “fibronectin concentration at which the effect was further increased” value in the assay with Mesenchymal Stem Cells (APS slides) is more than 1.07 µg/µL. The “fibronectin concentration at which transfection efficiency reached a plateau” value in the assay with Mesenchymal Stem Cells (PLL coating and absence of coating) is on record as “more than 0.53 μg/μL”. For the same compound, the “transfection efficiency as a function of fibronectin concentration” value in the assay with Mesenchymal Stem Cells (fibronectin 0 to 1.33 μg/μL, PLL, APS, uncoated slides) was “increased with an increase in fibronectin concentration”. The “transfection in the system” value in the assay on HEK293 cells was “transfection took place to a significant level”. Besides, the “surface area of the nucleus” value in the assay on Human Mesenchymal Cell is given as “significantly increased”. In addition, the “extension of adherent cells” value with Human Mesenchymal Cell (initial 3 hours of culture) is listed as “full extension of cells”.

Source of the values: patent publication US20090012766A1, “Event Sequencer” (NATIONAL INSTITUTE OF ADVANCED INDUSTRIAL SCIENCE AND …, priority 2004, published 2009).
